The supplement of paper PMC10307832

Experiments:
Test in all cases: relative viability (nuclei count vs DMSO), 5 days (fraction); higher = more cells survive
DM3189 + OSI-027 = compound: C1CN(CCN1)C2=CC=C(C=C2)C3=CN4C(=C(C=N4)C5=CC=NC6=CC=CC=C56)N=C3 [DM3189] + COc1cccc2cc(-c3nc([C@H]4CC[C@H](C(=O)O)CC4)n4ncnc(N)c34)[nH]c12 [OSI-027] (partner 0.5 µM)
Outline: (§1)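 Relative viability was taken as the ratio of nuclei in treated wells to nuclei in vehicle wells. Lung cancer cell lines in 1536-well plates received compounds by pin tool one day after seeding, either one drug alone or a fixed anchor-drug dose plus five library-drug doses (not always all listed) in √10 steps. Nuclei were counted on 4× images after 5 days of treatment, and values are medians of duplicate plates.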

DM3189 + Pemetrexed = compound: C1CN(CCN1)C2=CC=C(C=C2)C3=CN4C(=C(C=N4)C5=CC=NC6=CC=CC=C56)N=C3 [DM3189] + Nc1nc2[nH]cc(CCc3ccc(C(=O)N[C@@H](CCC(=O)O)C(=O)O)cc3)c2c(=O)[nH]1 [Pemetrexed] (partner 0.2 µM)
Outline: as §1

DM3189 + Crizotinib = compound: C1CN(CCN1)C2=CC=C(C=C2)C3=CN4C(=C(C=N4)C5=CC=NC6=CC=CC=C56)N=C3 [DM3189] + C[C@@H](Oc1cc(-c2cnn(C3CCNCC3)c2)cnc1N)c1c(Cl)ccc(F)c1Cl [Crizotinib] (partner 1 µM)
Outline: as §1

DM3189 + Bortezomib = compound: C1CN(CCN1)C2=CC=C(C=C2)C3=CN4C(=C(C=N4)C5=CC=NC6=CC=CC=C56)N=C3 [DM3189] + CC(C)C[C@H](NC(=O)[C@H](Cc1ccccc1)NC(=O)c1cnccn1)B(O)O [Bortezomib] (partner 0.002 µM)
Outline: as §1

DM3189 + Decitabine = compound: C1CN(CCN1)C2=CC=C(C=C2)C3=CN4C(=C(C=N4)C5=CC=NC6=CC=CC=C56)N=C3 [DM3189] + Nc1ncn([C@H]2C[C@H](O)[C@@H](CO)O2)c(=O)n1 [Decitabine] (partner 2 µM)
Outline: as §1

| Cell Line | relative viability (DM3189 + OSI-027; first compound 0.08 µM) | relative viability (DM3189 + OSI-027; first compound 0.253 µM) | relative viability (DM3189 + OSI-027; first compound 2.53 µM) | relative viability (DM3189 + Pemetrexed; first compound 0.08 µM) | relative viability (DM3189 + Pemetrexed; first compound 0.253 µM) | relative viability (DM3189 + Pemetrexed; first compound 0.8 µM) | relative viability (DM3189 + Pemetrexed; first compound 2.53 µM) | relative viability (DM3189 + Crizotinib; first compound 0.08 µM) | relative viability (DM3189 + Crizotinib; first compound 0.253 µM) | relative viability (DM3189 + Crizotinib; first compound 0.8 µM) | relative viability (DM3189 + Crizotinib; first compound 2.53 µM) | relative viability (DM3189 + Bortezomib; first compound 0.08 µM) | relative viability (DM3189 + Bortezomib; first compound 0.253 µM) | relative viability (DM3189 + Bortezomib; first compound 0.8 µM) | relative viability (DM3189 + Bortezomib; first compound 2.53 µM) | relative viability (DM3189 + Decitabine; first compound 0.08 µM) | relative viability (DM3189 + Decitabine; first compound 0.253 µM) | relative viability (DM3189 + Decitabine; first compound 0.8 µM) | relative viability (DM3189 + Decitabine; first compound 2.53 µM) | relative viability (DM3189 + OSI-027; first compound 0.8 µM) |
| --- | --- | --- | --- | --- | --- | --- | --- | --- | --- | --- | --- | --- | --- | --- | --- | --- | --- | --- | --- | --- |
| HCC-366 | 0.888 | 0.856 | 0.808 | 0.139 | 0.166 | 0.116 | 0.149 | 0.475 | 0.574 | 0.372 | 0.771 | 1.12 | 0.99 | 0.931 | 1.06 | 0.396 | 0.293 | 0.269 | 0.341 |  |
| HCC-827 | 0.886 | 0.812 | 0.822 | 0.279 | 0.244 | 0.249 | 0.275 | 0.896 | 0.89 | 0.866 | 0.896 | 1.12 | 0.958 | 0.985 | 1.06 | 0.34 | 0.311 | 0.324 | 0.296 | 0.842 |
| HOP-62 | 1.02 | 0.852 | 0.871 | 0.32 | 0.296 | 0.295 | 0.346 | 1 | 0.866 | 0.939 | 0.75 | 1.18 | 0.927 | 0.393 | 0.58 | 0.214 | 0.203 | 0.193 | 0.21 | 0.817 |
| IA-LM |  |  |  |  |  |  |  | 0.857 |  | 1.01 | 1.11 | 1.28 | 0.935 | 1.37 | 0.956 |  |  |  |  |  |
| LC-2-ad | 0.801 | 0.784 | 0.87 | 0.259 | 0.253 | 0.257 | 0.276 | 0.419 | 0.458 | 0.382 | 0.378 | 0.975 | 0.934 | 0.943 | 1.06 | 0.851 | 0.77 | 0.826 | 0.916 | 0.726 |
| LCLC-97TM1 | 0.563 | 0.304 | 0.396 | 0.182 | 0.17 | 0.136 | 0.167 | 0.304 | 0.249 | 0.297 | 0.313 | 1.26 | 0.573 | 0.531 | 0.366 | 0.263 | 0.201 | 0.197 | 0.228 | 0.397 |
| LCLC-103H | 0.513 | 0.435 | 0.41 | 0.514 | 0.407 | 0.431 | 0.469 | 1.01 | 1.01 | 0.963 | 1.05 | 1.14 | 0.939 | 0.955 | 1.07 | 0.765 | 0.746 | 0.691 | 0.721 | 0.442 |
| LK-2 | 0.193 | 0.155 | 0.174 | 0.283 | 0.198 | 0.197 | 0.183 | 0.234 | 0.241 | 0.22 | 0.214 |  |  |  |  | 0.307 | 0.278 | 0.201 | 0.187 | 0.159 |
| NCI-H358 | 1.02 | 0.722 | 0.488 | 0.172 | 0.155 | 0.181 | 0.168 | 0.516 | 0.56 | 0.504 | 0.509 |  |  |  |  | 0.226 | 0.191 | 0.217 | 0.194 | 0.782 |
| NCI-H727 | 0.471 | 0.606 | 0.583 |  |  |  |  | 0.889 | 0.821 |  | 0.737 | 1.07 | 0.854 |  | 0.716 | 0.886 | 0.769 | 0.846 | 0.976 | 0.486 |
| NCI-H1395 | 0.709 | 0.572 | 0.6 | 1.13 | 0.786 |  | 0.806 |  |  |  |  |  |  |  |  | 0.663 | 0.703 |  | 0.712 | 0.54 |
| NCI-H1563 | 0.876 | 0.673 | 0.785 | 0.715 | 0.787 | 0.755 | 0.752 | 0.944 | 0.865 | 0.833 | 0.899 | 0.945 | 0.762 | 0.887 | 1.07 |  |  |  |  | 0.749 |
| NCI-H1703 |  |  |  |  |  |  |  | 0.763 | 0.747 | 0.524 | 0.548 | 0.365 | 0.292 | 0.326 | 0.298 |  |  |  |  |  |
| NCI-H1793 | 0.279 | 0.247 | 0.319 | 1.03 | 1.18 | 1.1 | 1.47 |  |  |  |  |  |  |  |  | 0.55 | 0.458 | 0.461 | 0.541 | 0.245 |
| NCI-H1944 | 0.513 | 0.397 | 0.461 | 0.661 | 0.603 | 0.603 | 0.675 | 1.25 | 1 |  | 1.22 |  |  |  |  | 0.42 | 0.467 | 0.384 | 0.455 |  |
| NCI-H2170 | 0.863 | 0.76 | 0.686 | 0.282 | 0.276 | 0.373 | 0.248 | 1.31 | 1.27 | 1.24 | 1.09 |  |  |  |  | 0.494 | 0.484 | 0.466 | 0.44 | 0.768 |
| NCI-H2228 | 0.73 | 0.517 | 0.322 | 0.365 | 0.315 | 0.361 | 0.226 | 0.695 | 0.363 | 0.385 | 0.14 | 1.19 | 1.12 | 0.847 | 0.659 |  |  |  |  | 0.434 |
| NCI-H2342 | 0.658 | 0.626 | 0.552 | 0.954 | 0.745 | 0.802 | 0.847 |  |  |  |  |  |  |  |  | 0.747 | 0.679 | 0.718 | 0.688 | 0.622 |
| SK-MES-1 | 0.602 | 0.53 | 0.481 | 1.12 | 0.962 | 0.822 | 0.849 | 1.05 | 0.885 | 0.69 | 0.918 |  |  |  |  | 0.461 | 0.418 | 0.317 | 0.361 | 0.523 |
| SW 900 | 0.618 | 0.544 | 0.606 | 0.505 |  | 0.44 | 0.581 |  |  |  |  |  |  |  |  | 0.467 |  | 0.424 | 0.407 | 0.584 |
